Consider one substance from publication PMC5908784, “Extracellular loops 2 and 3 of the calcitonin receptor selectively modify agonist binding and efficacy” (Biochemical Pharmacology, 2018).

Numbering of substitutions follows the chain as printed. Where no end group is shown, it is not given here.

Assay in all cases: Homologous whole cell competition binding
Holding throughout (details): homologous competition of 125I-sCT(8-32), whole cells, mean ± S.E.M., SEM

Assay [1] deals with T1, hCTR D373A (Homo sapiens, UniProt P30988, D373A).
T1 construct: c-Myc (N); expressed in transfected cells
T1 sequence (P30988 25-474 D373A): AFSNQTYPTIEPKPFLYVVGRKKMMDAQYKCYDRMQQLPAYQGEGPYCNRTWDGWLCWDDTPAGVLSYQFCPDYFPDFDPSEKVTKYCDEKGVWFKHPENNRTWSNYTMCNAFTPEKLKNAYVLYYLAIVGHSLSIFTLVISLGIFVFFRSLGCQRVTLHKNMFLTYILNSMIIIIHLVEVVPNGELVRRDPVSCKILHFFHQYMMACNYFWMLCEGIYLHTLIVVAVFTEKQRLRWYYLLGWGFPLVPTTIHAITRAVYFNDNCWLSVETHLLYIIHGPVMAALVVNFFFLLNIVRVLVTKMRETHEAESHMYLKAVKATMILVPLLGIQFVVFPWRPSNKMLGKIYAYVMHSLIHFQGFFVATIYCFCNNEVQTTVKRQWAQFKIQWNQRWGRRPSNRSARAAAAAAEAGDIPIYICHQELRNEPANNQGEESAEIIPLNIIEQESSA
The protocol: (§1) Homologous radioligand competition was performed on 2.5 × 10^4 cells/well seeded into 96-well trays and cultured overnight. Cells were incubated overnight at 4 °C with two concentrations of ^125I-sCT(8-32) (between 25 and 100 pM; specific activity, 2000 Ci/mmol^9) and serial dilutions of non-iodinated sCT(8-32). Non-bound ligand was removed and bound ligand activity was measured using a γ counter (Wallac Wizard 1470 Gamma Counter, Perkin Elmer, 80% counter efficiency). Values were normalized against non-specific binding (0%) defined by the presence of 1 μM of unlabelled sCT(8-32), and total ligand bound in absence of competing sCT(8-32) (100%).
(§2) IC50 and Bmax values were estimated from competitive inhibition of ^125I-sCT(8-32) binding using a 3-parameter logistic equation (log(inhibitor versus response)) in Prism (v7; Graphpad). Data were corrected for radioligand occupancy using the Cheng-Prusoff equation in Prism; as such data are reported as pKi. Emax and EC50 were estimated from concentration-response curves using with a 3-parameter logistic equation in Prism (v7). These values are a composite of functional affinity, efficacy and stimulus response coupling. The Black and Leff operational model of agonism was applied to separate effects on pathway-specific efficacy (τ) from those that modify ligand functional affinity (pKA). Derived τ values were normalized to experimentally determined levels of cell surface expression to provide a measure of efficacy (τc) that is independent of affinity and altered cell surface receptor expression. pKi, pKA and log τc values for mutant receptors were statistically compared to those of the WT receptor using a one-way analysis of variance (ANOVA) and Dunnett’s post-test. Significance was accepted at P < 0.05.

Assay [2] addresses T2, hCTR E294A (Homo sapiens, UniProt P30988, E294A).
T2 construct: c-Myc (N); expressed in transfected cells
T2 sequence (P30988 25-474 E294A): T1 sequence (P30988 25-474 D373A) with E270A, A349D
The protocol:
as §1, §2

Assay [3] deals with T3, hCTR L291A (Homo sapiens, UniProt P30988, L291A).
T3 construct: expressed in transfected cells
T3 sequence (P30988 25-474 L291A): T1 sequence (P30988 25-474 D373A) with L267A, A349D
The protocol:
as §1, §2

Assay [4] deals with T4, hCTR N288A (Homo sapiens, UniProt P30988, N288A).
T4 construct: expressed in transfected cells
T4 sequence (P30988 25-474 N288A): T1 sequence (P30988 25-474 D373A) with N264A, A349D
The protocol:
as §1, §2

For the substance “VLGKLSQELHKLQTYPRTNTGSGTP-NH2 [sCT(8-32)]”, the inhibition constant (Ki) in assay [1] is 525 pM; in assay [2] it was 263 pM; in assay [3], 1740 pM; in assay [4], 234 pM.

The term Ki denotes a measure of affinity in units of concentration, obtained from inhibition or displacement.
